# Measured values published in patent US4816447A, “Anti-viral guanine compounds” (priority 1984, dated 1989).
# Like-named read-outs stand apart in the source and are kept apart here.
# Key:
# HSV-1 PAA ®1 = settings: HSV-1 PAA R1
# [1] = tested on: Herpes simplex virus type 2; experiment: Tube dilution assay, viral cytopathology of HSV-2 in rabbit kidney cell cultures; settings: Human alphaherpesvirus 2, in Oryctolagus cuniculus, read-out: Minimum Effective Concentration
# HSV-1 [2] = experiment: Corneal HSV-1 infection of rabbit eyes, topical treatment (Table VI); format: in vivo, HSV-1; rabbits; settings: for Min. Effective Dose: corneal infection, topical treatment; for limiting progression and resolving corneal lesions: infected rabbits
# [3] = tested on: Herpes simplex virus type I (HSV-1), strain Schooler; experiment: Treatment of Herpes simplex virus infection in mice, intraperitoneal HSV-1, subcutaneous treatment (Table II); format: in vivo, HSV-1; ICR/Ha mice; settings: for Percent Survival: at 15 days
# HSV-1 [4] = experiment: Intraperitoneal HSV-1 infection in mice, oral treatment (Table VI); format: in vivo, HSV-1; ICR/Ha mice; settings: for minimal effective dose: Human alphaherpesvirus 1, intraperitoneal infection, oral treatment, read-out: Min. Effective Dose
# HSV-1 383R1 = format: cell-based, HSV-1 (383R1); NIH 3T3 mouse cells; settings: for EC50: Human alphaherpesvirus 1, in Mus musculus
# [5] = tested on: primary rabbit kidney cell cultures; experiment: Toxicity controls in primary rabbit kidney cell cultures; format: cell-based; settings: at 100 μg/ml
# vesicular stomatitis = format: cell-based
# HSV1 (Strain Schooler) = experiment: In vivo assay, intraperitoneal HSV1 infection of mice, subcutaneous treatment (Table IV); set-up: species or system HSV1; ICR/Ha mice; settings: for Percent Survival: 15 days
# Method: Twenty gram ICR/Ha mice were infected with approximately 100 lethal doses (100LD50) of HSV1 (Strain Schooler) by the intraperitoneal route. Groups of 10 infected animals were treated twice daily for four days starting immediately after infection by subcutaneous injection at final daily doses of 50, 12.5, 3.1, 0.8, 0.2, 0.05 and 0.0125 mg/kg of potassium 9-(1,3-dihydroxy-2-propoxymethyl)guanine cyclic monophosphate. The mice were observed daily for 15 days at the same time each day and the day of death recorded for each animal.
# [6] = tested on: feline rhinotracheitis virus; experiment: Antiviral activity against feline rhinotracheitis virus; format: cell-based; settings: data not shown, read-out: ED50 (the source's name)
# HSV-1 [7] = experiment: Intracerebral HSV-1 infection in weanling mice, subcutaneous treatment (Table VI); format: in vivo, HSV-1; ICR/Ha weanling mice
# HSV1 = experiment: In vitro assay, viral cytopathology of HSV1 in primary rabbit kidney cells; format: cell-based; settings: Human alphaherpesvirus 1; days 5 and 7; read-out: Min. Effective Dose against HSV1
# HSV2 = experiment: In vitro assay, viral cytopathology of HSV2 in primary rabbit kidney cells; format: cell-based; settings: Human alphaherpesvirus 2; days 5 and 7; read-out: Min. Effective Dose against HSV2
# influenza A = experiment: RNA virus replication, influenza A; format: cell-based
# HSV-2 TS6 = experiment: microbe, parasite or virus in culture; settings: Human alphaherpesvirus 2, read-out: ED50
# polio = format: cell-based
# equine herpes virus = experiment: Antiviral activity against equine herpes virus; format: cell-based; settings: data not shown, read-out: ED50 (the source's name)
# Cytomegalovirus = Cytomegalovirus plaque reduction assay on human MRC-5 monolayers; format: cell-based, Cytomegalovirus (Towne Strain); human MRC-5 cells
# Method: The compound of formula II was effective in suppressing cytomegalovirus plaque formation on MRC-5 cell monolayers using 0.1 to 0.6 μg/ml.
# ^d Plaque reduction assay on human MRC5 cell monolayers
# [8] = target: thymidine kinase, isolated from HSV1-infected HeLa cells (Human herpesvirus 1, UniProt P0DTH5); experiment: Competition between thymidine and acycloguanosine or compound of formula II for phosphorylation by the virus-induced thymidine kinase; format: biochemical; settings: for Percent monophosphate: 1200 min
# thymidine kinase, isolated from HSV1-infected HeLa cells, sequence (P0DTH5 whole entry): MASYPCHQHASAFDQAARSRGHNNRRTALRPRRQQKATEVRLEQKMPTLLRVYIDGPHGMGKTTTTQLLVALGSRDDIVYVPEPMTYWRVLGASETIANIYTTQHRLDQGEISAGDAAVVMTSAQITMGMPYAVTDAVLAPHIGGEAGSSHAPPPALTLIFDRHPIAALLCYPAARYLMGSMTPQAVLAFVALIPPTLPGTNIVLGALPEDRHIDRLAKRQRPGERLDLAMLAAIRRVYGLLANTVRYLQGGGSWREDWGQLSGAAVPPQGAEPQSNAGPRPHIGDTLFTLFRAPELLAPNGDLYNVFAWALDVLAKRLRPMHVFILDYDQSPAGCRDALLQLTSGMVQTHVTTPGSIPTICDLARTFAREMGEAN
# HSV-1 (383R1) [9] = experiment: Phosphorylation capacity of HSV-1 (383R1); format: biochemical
# [10] = target: HSV1-induced thymidine kinase (Human alphaherpesvirus 1 strain 17, UniProt P0DTH5); experiment: Kinetic parameters with purified viral thymidine kinase; format: biochemical; settings: compound of formula II to acycloguanosine
# HSV1-induced thymidine kinase, sequence (P0DTH5 whole entry): as above
# HSV-1 (383R1) [11] = format: cell-based; settings: HSV-1 (383R1) vs wild type
# [12] = read-out: Antiviral Concentration, 50% plaque reduction, HSV-1 383R1, 3T3 TK^- /TK^+HSV cells
# [13] = read-out: Antiviral Concentration, 50% plaque reduction, HSV-1 383R1, 3T3 TK^- cells
smiles,measurement,setting,value
"Nc1nc2c(ncn2COCCO)c(=O)[nH]1 [Acycloguanosine, 9-(2-hydroxyethoxymethyl)guanine, reference compound]",Sensitivity (S) or Resistance (R),HSV-1 PAA ®1,R
same,minimal effective concentration,[1],1 to 3 µg/mL
same,Min. Effective Dose,HSV-1 [2],1.0%
same,limiting progression and resolving corneal lesions,HSV-1 [2],equally effective
same,Avg. Survival Time,[3]; 3.1 mg/kg/day s.c.,6.4 days
same,Percent Survival,[3]; 3.1 mg/kg/day s.c.,6%
same,Avg. Survival Time,[3]; 12.5 mg/kg/day s.c.,6.2 days
same,Percent Survival,[3]; 12.5 mg/kg/day s.c.,6%
same,Avg. Survival Time,[3]; 50 mg/kg/day s.c.,7.7 days
same,Percent Survival,[3]; 50 mg/kg/day s.c.,0%
same,minimal effective dose,HSV-1 [4],12.5 to 50 mg/kg/day
"Nc1nc2c(ncn2COC2COP(=O)(O)OC2)c(=O)[nH]1 (stereo not drawn) [Cyclic Monophosphate, Potassium 9-(1,3-dihydroxy-2-propoxymethyl)guanine cyclic monophosphate]",antiviral activity on 3T3 TK^- /TK^+HSV vs 3T3 TK^- cells,HSV-1 383R1; HSV-1 (383R1),equivalent
same,EC50,HSV-1 383R1; [12],1 µg/mL
same,EC50,HSV-1 383R1; [13],1 µg/mL
same,Toxicity,[5],Not tox.
same,effect on RNA virus replication,vesicular stomatitis,not effective
same,Min. Effective Dose,HSV-1 [2],1.0%
same,limiting progression and resolving corneal lesions,HSV-1 [2],equally effective
same,minimal effective dose,HSV-1 [4],0.8 to 3.1 mg/kg/day
same,efficacy relative to acyclovir by minimum effective dose,HSV-1 [4]; intraperitoneal,consistently more efficacious than acyclovir
same,antiviral efficacy in the herpes-mouse infection model relative to compound of Formula II,HSV-1 [4]; not shown in Table VI,generally equivalent
same,Ave. Survival Time,"HSV1 (Strain Schooler); Expt. 1, 0.2 mg/kg/day s.c.",13.5 days
same,Percent Survival,"HSV1 (Strain Schooler); Expt. 1, 0.2 mg/kg/day s.c.",70%
same,Ave. Survival Time,"HSV1 (Strain Schooler); Expt. 1, 0.8 mg/kg/day s.c.",10.5 days
same,Percent Survival,"HSV1 (Strain Schooler); Expt. 1, 0.8 mg/kg/day s.c.",40%
same,Ave. Survival Time,"HSV1 (Strain Schooler); Expt. 1, 3.1 mg/kg/day s.c.",10.7 days
same,Percent Survival,"HSV1 (Strain Schooler); Expt. 1, 3.1 mg/kg/day s.c.",20%
same,Ave. Survival Time,"HSV1 (Strain Schooler); Expt. 1, 12.5 mg/kg/day s.c.",19.5 days
same,Percent Survival,"HSV1 (Strain Schooler); Expt. 1, 12.5 mg/kg/day s.c.",100%
same,Ave. Survival Time,"HSV1 (Strain Schooler); Expt. 1, 50 mg/kg/day s.c.",19.5 days
same,Percent Survival,"HSV1 (Strain Schooler); Expt. 1, 50 mg/kg/day s.c.",100%
same,Ave. Survival Time,"HSV1 (Strain Schooler); Expt. 2, 0.0125 mg/kg/day s.c.",6.3 days
same,Percent Survival,"HSV1 (Strain Schooler); Expt. 2, 0.0125 mg/kg/day s.c.",10%
same,Ave. Survival Time,"HSV1 (Strain Schooler); Expt. 2, 0.05 mg/kg/day s.c.",6.0 days
same,Percent Survival,"HSV1 (Strain Schooler); Expt. 2, 0.05 mg/kg/day s.c.",0%
same,Ave. Survival Time,"HSV1 (Strain Schooler); Expt. 2, 0.2 mg/kg/day s.c.",8.3 days
same,Percent Survival,"HSV1 (Strain Schooler); Expt. 2, 0.2 mg/kg/day s.c.",30%
same,Ave. Survival Time,"HSV1 (Strain Schooler); Expt. 2, 0.8 mg/kg/day s.c.",7.4 days
same,Percent Survival,"HSV1 (Strain Schooler); Expt. 2, 0.8 mg/kg/day s.c.",0%
same,Ave. Survival Time,"HSV1 (Strain Schooler); Expt. 2, 3.1 mg/kg/day s.c.",11.5 days
same,Percent Survival,"HSV1 (Strain Schooler); Expt. 2, 3.1 mg/kg/day s.c.",50%
same,Ave. Survival Time,"HSV1 (Strain Schooler); Expt. 2, 12.5 mg/kg/day s.c.",15.0 days
same,Percent Survival,"HSV1 (Strain Schooler); Expt. 2, 12.5 mg/kg/day s.c.",60%
same,EC50,[6],~1 µg/mL
same,minimal effective dose,"HSV-1 [7]; Human alphaherpesvirus 1, sc, intracerebral infection, subcutaneous treatment, read-out: Min. Effective Dose",0.8 mg/kg/day
same,efficacy relative to acyclovir by minimum effective dose,HSV-1 [7]; intracerebral,consistently more efficacious than acyclovir
same,minimal effective concentration,HSV1,12.5 to 25 µg/mL
same,minimal effective concentration,HSV2,50 to 100 µg/mL
same,effect on RNA virus replication,influenza A,not effective
same,EC50,HSV-2 TS6,0.4 µg/mL
same,effect on RNA virus replication,polio,not effective
same,EC50,equine herpes virus,~1 µg/mL
"Nc1nc2c(ncn2COC(CO)CO)c(=O)[nH]1 [Compound of Formula II, 9-(1,3-Dihydroxy-2-propoxymethyl)guanine]",EC50,HSV-1 383R1; [12],0.06 µg/mL
same,EC50,HSV-1 383R1; [13],5 µg/mL
same,calculated average relative potency to acycloguanosine (95% CI),Cytomegalovirus,28.6
same,phosphorylation in presence of a large excess of thymidine,[8]; large excess of thymidine,is phosphorylated by the viral thymidine kinase even in the presence of a large excess of thymidine
same,Percent monophosphate,[8]; plus 2.5 mM thymidine,23%
same,Percent monophosphate,[8]; without thymidine,93%
same,minimal effective concentration,[1],1 to 3 µg/mL
same,Avg. Survival Time,[3]; 3.1 mg/kg/day s.c.,12.5 days
same,Percent Survival,[3]; 3.1 mg/kg/day s.c.,53%
same,Avg. Survival Time,[3]; 12.5 mg/kg/day s.c.,14.1 days
same,Percent Survival,[3]; 12.5 mg/kg/day s.c.,73%
same,Avg. Survival Time,[3]; 50 mg/kg/day s.c.,19.1 days
same,Percent Survival,[3]; 50 mg/kg/day s.c.,100%
same,phosphorylation by HSV-1 (383R1),HSV-1 (383R1) [9],incapable of phosphorylation
same,relative efficiency as substrate (Vmax /Km) vs acycloguanosine,[10],30 to 1
same,EC50,HSV-2 TS6,15.5 µg/mL
same,less susceptible than wild type,HSV-1 (383R1) [11],approximately 100 fold
